From US10618901B2 (GlaxoSmithKline Intellectual Property Development Limited, priority 2014, dated 2020) come the findings set out here.

One assay has as its target T1, 6HIS-Tev-LRRK2 (1326-2527) (Homo sapiens, UniProt Q5S007).
T1 construct: A LRRK2 cDNA encoding residues 1326-2527 was received from Dundee University; made in house; host or cells: Spodoptera frugiperda Sf9 (baculovirus, pFB-HTb)
T1 sequence (Q5S007 1326-2527): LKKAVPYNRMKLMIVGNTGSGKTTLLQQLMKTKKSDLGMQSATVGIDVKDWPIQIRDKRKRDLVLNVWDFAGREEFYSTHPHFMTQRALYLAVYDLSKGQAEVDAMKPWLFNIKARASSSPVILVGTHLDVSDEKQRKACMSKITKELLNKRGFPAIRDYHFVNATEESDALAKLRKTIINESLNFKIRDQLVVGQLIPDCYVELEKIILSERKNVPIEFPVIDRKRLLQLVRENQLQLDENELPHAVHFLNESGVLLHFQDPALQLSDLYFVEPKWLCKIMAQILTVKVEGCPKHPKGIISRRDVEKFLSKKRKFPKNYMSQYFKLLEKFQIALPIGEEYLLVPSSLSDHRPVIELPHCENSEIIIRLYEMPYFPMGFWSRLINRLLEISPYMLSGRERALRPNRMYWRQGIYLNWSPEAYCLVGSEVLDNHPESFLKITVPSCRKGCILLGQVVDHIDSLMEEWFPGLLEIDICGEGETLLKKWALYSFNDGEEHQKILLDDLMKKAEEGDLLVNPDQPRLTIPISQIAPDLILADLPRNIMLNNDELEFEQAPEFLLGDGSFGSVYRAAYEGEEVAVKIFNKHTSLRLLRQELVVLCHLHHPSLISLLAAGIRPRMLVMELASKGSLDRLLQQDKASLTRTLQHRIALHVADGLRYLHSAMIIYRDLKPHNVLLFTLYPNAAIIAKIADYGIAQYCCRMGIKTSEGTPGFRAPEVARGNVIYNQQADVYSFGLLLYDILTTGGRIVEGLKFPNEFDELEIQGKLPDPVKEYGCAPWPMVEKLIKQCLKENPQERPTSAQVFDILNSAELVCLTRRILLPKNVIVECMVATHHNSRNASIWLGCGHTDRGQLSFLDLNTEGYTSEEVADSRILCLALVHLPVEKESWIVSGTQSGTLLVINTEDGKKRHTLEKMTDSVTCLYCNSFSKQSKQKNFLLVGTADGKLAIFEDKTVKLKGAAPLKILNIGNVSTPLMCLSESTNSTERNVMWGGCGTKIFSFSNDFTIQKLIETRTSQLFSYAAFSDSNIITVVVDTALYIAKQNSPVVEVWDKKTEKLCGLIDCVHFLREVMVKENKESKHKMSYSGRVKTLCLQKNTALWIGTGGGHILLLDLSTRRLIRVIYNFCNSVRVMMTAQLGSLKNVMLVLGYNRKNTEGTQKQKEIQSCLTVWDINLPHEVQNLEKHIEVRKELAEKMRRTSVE
Nature of the assay: Recombinant LRRK2 enzyme peptide substrate TR-FRET assay. The format is biochemical. The following applies: 60 nM LRRK2 enzyme; 1 uM Biotin-longer LRRKtide; 10 uM ATP. As for the experimental part:
A LRRK2 cDNA encoding residues 1326-2527 was received from Dundee University (described in M. Jaleel et al., 2007, Biochem J, 405: 407-417). This gene fragment was subcloned into pFB-HTb (Invitrogen) using BamHI and NotI restriction sites. The LRRK2 plasmid was recombined into the baculovirus genome according to the BAC-to-BAC protocol described by Invitrogen. Transfection into Spodoptera frugiperda (Sf9) insect cells was performed using Cellfectin (Invitrogen), according to the manufacturer's protocol to generate P1 and P2 baculovirus stocks.
Sf9 cells were grown in HyClone SFX (Thermo Scientific) growth media at 27° C., 80 rpm in shake flask until of a sufficient volume to inoculate a bioreactor. The cells were grown in a 20 liter working volume Wave bioreactor (GE Healthcare) at 27° C., 50% dissolved oxygen and an agitation rate 22 rocks per minute, 10 degree rock angle, 200 ml/min air with a cell concentration of approximately 6×e6 cells/ml. The cells were infected with P2 Baculovirus at a multiplicity of infection (MOI) of 3. The cultivation was continued for a 48 hour expression phase. The infected cells were removed from the growth media by centrifugation at 2500 g using a Sorvall RC 3C Plus centrifuge at 2500 g for 20 minutes. The cell pellet was immediately frozen and subsequently supplied for purification.
A 260 g pellet was allowed to thaw in a water bath at 27° C. with 800 ml lysis buffer/buffer A (50 mm Tris-HCl pH 8.5, 300 mM NaCl, 1 mm DTT, 10% glycerol, 1 ml/L calbiochem complete protease inhibitor cocktail and benzonase (50 ul/800 ml)) before being dounce homogenised on ice using 20 strokes per 100 ml. The suspension was packed in ice and sonicated at 50% amplitude for 3 min 10 sec on/off using a ¾″ probe. The suspension was then centrifuged at 100,000 g for 90 min, at 4° C.
The lysate (700 ml) was decanted from the insoluble pellet and contacted for 3 h at 4 C with 10 ml His bind Ni NTA resin by end over end mixing. The resin was recovered by centrifugation, 3000 g, 5 min at 4 C, and packed in an XK16 column. The column was then washed with 10 column volumes buffer A, 10 column volumes buffer B (buffer A+1M NaCl) and 10 column volumes buffer C (buffer A+20 mM imidazole). The column was then eluted with 15 column volumes buffer D (buffer A+300 mM imidazole) collecting 2 ml fractions. All washes and elution were conducted at 4 ml/min.
Fractions identified by SDS-PAGE as containing protein of interest were pooled and loaded directly onto a 320 ml SEC Superdex 200 pg column that was pre-equilibrated with buffer E (50 mM Tris-HCl pH 8.5, 300 mM NaCl, 10% glycerol, 1 mM DTT). The column was loaded and eluted with 1.2 column volumes buffer E at 2 ml/min collecting 2 ml fractions. Fractions identified by SDS-PAGE as containing protein of interest were tested for activity.
Production of Biotin-Loner LRRKtide
The peptide (biotin-[…]-OH) was assembled at a […] scale using FMOC solid phase peptide synthesis on an ACT 357 MPS automated peptide synthesizer. The resulting crude peptide was cleaved from the resin using a 95:2.5:2.5 mix of trifluoroacetic acid: triisopropylsilane: water. The crude cleaved peptide was purified by reverse phase HPLC, eluting with a 5-35% gradient of 0.1% trifluoroacetic acid/acetonitrile in 0.1% trifluoroacetic acid/water.
Recombinant LRRK2 Enzyme Peptide Substrate TR-FRET Assay
This assay for LRRK2 inhibition is based on the detection of phosphorylation of the peptide ‘longer LRRKtide’ (biotin-[…]-OH) using a time resolved-fluorescence resonance energy transfer (TR-FRET) assay. It uses an antibody labelled europium chelate donor, W-1024 (Eu) and Streptavidin-Surelight APC acceptor (APC). When in close proximity, the excitation of Eu at 330 nm leads to energy transfer to APC with emission of light at 665 nm,
Assay Protocol • 1. A 10 mM test compound was dissolved in 100% DMSO and serially diluted 1 in 4. […]
For “cis-3-(4-((4-ethoxy-7H-pyrrolo[2,3-d]pyrimidin-2-yl)amino)-5-methyl-1H-pyrazol-1-yl)cyclopentanol [Example E56]”, the “recombinant LRRK2 enzyme peptide substrate TR-FRET assay (pIC50)” value is listed as 8.1.
In the case of “trans-2-(4-((4-ethoxy-7H-pyrrolo-[2,3-d]pyrimidin-2-yl)amino)-5-methyl-1H-pyrazol-1-yl)-cyclopentanol [Example E40]”, the “recombinant LRRK2 enzyme peptide substrate TR-FRET assay (pIC50)” value amounted to 8.3.
The same measure, in the same setting: next, “trans-2-(4-((4-ethoxy-7H-pyrrolo-[2,3-d]pyrimidin-2-yl)amino)-5-methyl-1H-pyrazol-1-yl)-cyclopentanol [Example E41]”: 8.
Same read-out and setting: the same measure for “trans-2-(5-chloro-4-((4-ethoxy-7H-pyrrolo-[2,3-d]-pyrimidin-2-yl)amino)-1H-pyrazol-1-yl)-cyclopentanol [Example E37]”: 9.
The same measure, in the same setting: next, “trans-2-(5-chloro-4-((4-ethoxy-7H-pyrrolo-[2,3-d]-pyrimidin-2-yl)amino)-1H-pyrazol-1-yl)cyclopentanol [Example E38]”: 9.1.

The same assay, now with this note: 60 nM LRRK2 enzyme; 1 uM Biotin-longer LRRKtide; 10 uM ATP; read-out: recombinant LRRK2 enzyme peptide substrate TR-FRET assay (pIC50) (converted).
Regarding `CCOc1nc(Nc2cnn(C3CCN(C)C3)c2C)nc2[nH]ccc12` (single isomer, unassigned) [Example E14, 4-ethoxy-N-(5-methyl-1-(1-methylpyrrolidin-3-yl)-1H-pyrazol-4-yl)-7H-pyrrolo-[2,3-d]-pyrimidin-2-amine], the IC50 was 12.6 nM.
As to `CCOc1nc(Nc2cnn(CC(C)(C)O)c2C)nc2[nH]ccc12` [Example E3, 1-(4-((4-ethoxy-7H-pyrrolo-[2,3-d]pyrimidin-2-yl)amino)-5-methyl-1H-pyrazol-1-yl)-2-methylpropan-2-ol], the IC50 is 12.6 nM.
Same read-out and setting: next, `CCOc1nc(Nc2cnn(C3CCOCC3)c2C2CC2)nc2[nH]ccc12` [Example E44, N-(5-cyclopropyl-1-(tetrahydro-2H-pyran-4-yl)-1H-pyrazol-4-yl)-4-ethoxy-7H-pyrrolo-[2,3-d]pyrimidin-2-amine]: 7.94 nM; `CCOc1nc(Nc2cnn(CCN3CCOCC3)c2C)nc2[nH]ccc12` [Example E45, 4-ethoxy-N-(5-methyl-1-(2-morpholinoethyl)-1H-pyrazol-4-yl)-7H-pyrrolo-[2,3-d]pyrimidin-2-amine]: 10 nM.
Still for that read-out and setting: next, `CCOc1nc(Nc2cnn(C3CC(O)C3)c2C)nc2[nH]ccc12` (stereo not shown) [Example E52, 3-(4-((4-ethoxy-7H-pyrrolo-[2,3-d]-pyrimidin-2-yl)-amino)-5-methyl-1H-pyrazol-1-yl)cyclo-butanol]: 7.94 nM.

The same assay, now with this note: 60 nM LRRK2 enzyme; 10 uM ATP; read-out: pIC50 in the recombinant LRRK2 enzyme peptide substrate TR-FRET assay (converted).
In the case of `CCOc1nc(Nc2cnn(C3CCCC3(C)O)c2C)nc2[nH]ccc12` (racemic) [Example E70, Trans-2-(4-((4-ethoxy-7H-pyrrolo-[2,3-d]pyrimidin-2-yl)amino)-5-methyl-1H-pyrazol-1-yl)-1-methylcyclopentanol], the IC50 was at most 100 nM.
Regarding `CCOc1nc(Nc2cnn(C3CCN(C4COC4)C3)c2C)nc2[nH]ccc12` (single isomer, unassigned) [Example E67, 4-ethoxy-N-(5-methyl-1-(1-(oxetan-3-yl)-pyrrolidin-3-yl)-1H-pyrazol-4-yl)-7H-pyrrolo-[2,3-d]pyrimidin-2-amine], the IC50 was at most 100 nM.
As for `CCOc1nc(Nc2cnn(CCOC)c2Cl)nc2[nH]ccc12` [Example E21, N-(5-chloro-1-(2-methoxyethyl)-1H-pyrazol-4-yl)-4-ethoxy-7H-pyrrolo-[2,3-d]-pyrimidin-2-amine], the IC50 was at most 100 nM.
